Assay results taken from patent publication US11150251B2, “Bi-functional arginine-glycine-aspartic acid (RGD) peptides and methods to promote angiogenesis” (Clemson University Research Foundation, priority 2016, dated 2021).
Entries after “also recorded” stand apart in the source; their conditions may differ. Each block holds one substance with its values, some of them ahead of it. Ends that are not written are not given here. * marks the point of attachment. Meth = methacrylated, methacrylate group attached (2-isocyanatoethyl methacrylate used), C=C(C)C(=O)OCCNC(=O)*

What was measured:
[1] = tested on: VLA-6 (α6) and αvβ3 integrin subunits; settings: cited from earlier work
[2] = tested on: hiPSC-CMs; assay: hiPSC-CM adhesion on RGD peptide-functionalized PEG hydrogel microarray; type: cell-based, human; settings: 15 mM peptide, 3 days culture, 18 replicates
Experimental: (§1) PEGDA and methacrylated peptides were mixed at one fixed peptide concentration (15 mM) to prepare microarrayed hydrogels with a constant peptide concentration. hiPSC-CMs (human induced pluripotent stem cell-derived cardiomyocytes from Cellular Dynamics International, Madison, Wis., USA) were seeded onto the microarray and cultured for 3 days to facilitate the formation of sarcomere structures. hiPSC-CMs were stained with DAPI to approximate cell number and phalloidin for F-actin to estimate cell spreading. Sarcomere structure was examined by using immunofluorescence microscopy.
hiPSC-derived cardiomyocytes (iCell Cardiomyocytes, Cellular Dynamics International, Madison, Wis., USA) were cultured according to the manufacturer's protocol. Briefly, hiPSC-derived cardiomyocytes were plated on 0.1% gelatin coated 6-well plates in iCell Cardiomyocytes Plating Medium (Cellular Dynamics International) at a density of about 3×10^5 to 4.0×10^5 cells/well and incubated at 37° C. in 5% CO2 for 4 days. Two days after plating, the plating medium was removed and replaced with 4 mL of iCell Cardiomyocytes Maintenance Medium (Cellular Dynamics International). After 4 days of monolayer pre-culture, cells were detached using trypLE Express (Gibco Life Technologies, Grand Island, N.Y.) and seeded along with culture media on the hydrogel microarrays. […] Sarcomere structures were visualized using sarcomere actinin and troponin-I staining as described above.

[3] = tested on: hADSCs; assay: hADSC adhesion on peptide-functionalized PEGDA-700 hydrogel microarray (peptide function validation, glycine linker length); type: cell-based, human; settings: for adhesion of hADSCs on peptide-functionalized PEGDA-700 hydrogels: 15 mM peptide; for saturation number of attached hADSCs relative to MethRGDSP and MethG2RGDSP: saturated (maximum) number of attached cells, peptide 0.5-15 mM, 12 hours
Experimental: PEGDA and methacrylated peptides were mixed at varied peptide concentrations (i.e., 0.5, 1, 3, 6, 9, 12 and 15 mM) to prepare microarrayed hydrogels with different peptide concentrations. hADSCs were seeded onto the array and cultured for 12 hours.
All experiments were conducted using passage 5 (P5) hADSCs.

[4] = tested on: hiPSC-CMs; assay: Sarcomere formation / alpha sarcomeric actinin expression of hiPSC-CMs on hydrogel microarray; type: cell-based, human; settings: 15 mM peptide, 3 days culture
Experimental: as §1
Briefly, hiPSC-CMs on the microarray were fixed with 4% PFA solution and blocked by 10% goat serum. […] Z-stacked Images collected from the microarray were analyzed by using the ImageJ (National Institutes of Health) for semi-quantitative analysis of the expression level of alpha sarcomeric actinin of hiPSC-CMs on the microarrays. The sarcomeric actinin expression level of hiPSC-CMs on each hydrogel spot was determined by the total fluorescence intensities of sarcomeric actinin staining divided by the total cell number on the hydrogel spot, which was then normalized to the blank PEG-700 hydrogel spots. […]

[5] = molecular target: T1, VLA-6 integrin (Homo sapiens, UniProt P05556+P23229); assay: Integrin antibody blocking of HUVEC adhesion on alginate surface, anti VLA-6; type: cell-based; settings: 2D peptide-functionalized alginate, anti VLA-6 1:20, 6 hours
T1 construct: endogenous in cells; host or cells: HUVEC
Experimental: (§2) The integrin antibodies and their combinations (no antibody, anti VLA-6 only, anti-integrin αvβ3 only and anti VLA-6+ anti-integrin αvβ3,) were aliquot into predesigned ratio (final ratios in the mixture: 1:20 for anti VLA-6, 1:100 for anti-integrin αvβ3) with PBS, respectively. The HUVECs were incubated with these antibodies for 15 min, sedimented by low speed centrifugation, suspended in 100 μl of serum-free MEM plus 0.02% BSA and then added into the 1% alginate gel coated wells. The wells were transferred into incubator for 6 hours. After that, unattached cells were rinsed from the wells and the attached cells were then fixed and stained with DAPI for cell number counting and phalloidin for F-actin.

[6] = tested on: HUVECs; assay: HUVEC culture in 3D peptide-functionalized alginate hydrogels (spreading, proliferation, network formation); type: cell-based, human; settings: 1% alginate, 10% (w/w) peptide, 6 million HUVECs/ml, 2 days culture
Experimental: The Ca2+ containing substrates for alginate crosslinking was prepared as the previous literature mentioned. Alginate modified with these peptides (RGDS (SEQ ID NO:35), RGDSP (SEQ ID NO:33) and α1-peptide, respectively) was dissolved into HUVECs culturing media to prepare 1% alginate solution. […] mixture of the alginate and HUVECs was transferred into each well in 96 well plates (3 replicates for each peptide). The alginate was left gelling for 40 min. Then the well plates were transferred into incubator for 10 min to melt the Ca2+ containing substrates. After Ca2+ containing substrates get removed, HUVEC culturing media was added into each well and continue culture for additional two days. Media were changed every day. The cells were then fixed and stained with DAPI for cell number counting and phalloidin for F-actin to estimate cell spreading at day 0 and day 2. The fluorescent pictures were taken by a Leica TCS SP5 AOBS confocal microscope system. The total tubule length and the proliferation rates were measured.

[7] = molecular target: T2, αvβ3 integrin (Homo sapiens, UniProt P05106+P06756); assay: Integrin antibody blocking of HUVEC adhesion on alginate surface, anti-integrin αvβ3; type: cell-based; settings: 2D peptide-functionalized alginate, anti-integrin αvβ3 1:100, 6 hours
T2 construct: endogenous in cells; host or cells: HUVEC
Experimental: as §2

[8] = tested on: VLA-6 and αvβ3 integrin; assay: Integrin antibody blocking of HUVEC adhesion on alginate surface, anti VLA-6 + anti-integrin αvβ3; type: cell-based, human; settings: for decrease in HUVEC adhesion when both VLA-6 and αvβ3 integrin are blocked: 2D peptide-functionalized alginate, both antibodies, 6 hours; for integrin binding concluded from blocking experiments: HUVECs on peptide-functionalized alginates
Experimental: as §2

[9] = tested on: KDR (VEGFR2); assay: RT-PCR of VEGFR2 mRNA in HUVECs in 3D peptide-modified alginate gel; type: cell-based, human; settings: HUVECs in 3D peptide-functionalized alginate hydrogels, 6 hours culture
Experimental: Before PCR experiments, HUVECs were seeded in three different peptides (RGDS (SEQ ID NO:35), RGDSP (SEQ ID NO:33) and α1-peptide, respectively) modified 1% alginate gel. The cells were cultured for 6 hrs and then harvest for RNA isolation. Total RNA was isolated according to the kit and protocol of an RNeasy Micro Kit (Qiagen, Vinlo, Netherlands) with the addition of the QIAShredder (Qiagen) during the homogenization step for HUVECs. For each group, around 0.1 million cells were used for RNA isolation. At least 25 ng of total RNA for each group was used for cDNA synthesis by the Bio-Rad (Hercules, USA) iScript cDNA synthesis kit. qRT-PCR was executed with “best coverage” validated Taqman primers (Life Technologies, Carlsbad, USA) in 10 μl reactions for the following genes: KDR (VEGFR2), ACTB, GAPDH. qRT-PCR Data was normalized as the change in cycle threshold (dCt) from the geometric mean of ACTB and GAPDH expression. Expression was analyzed using mRNA expression=2^(−(dCt)) and then normalized to the gene expression from RGDS (SEQ ID NO:35) samples.

[10] = tested on: HUVECs (EC integrin); assay: HUVEC adhesion on RGD peptide-functionalized PEG hydrogel microarray; type: cell-based, human; settings: for affinity to HUVECs / HUVEC adhesion on PEG hydrogel microarray: 12 hours culture
Experimental: Methacrylated peptides (shown in FIG. 7) were dissolved in DMF at pre-designated ratios (1 mM, 3 mM, 6 mM, 9 mM, 12 mM, 15 mM and 20 mM) and mixed with PEGDA (containing 1% DMPA as initiator) (DMF solution of methacrylated peptide: PEGDA=1:1 (v/v)) and then transferred into a 384 well plate for microarray fabrication. The microarrays were printed in a humid Ar-atmosphere on epoxy monolayer-coated glass slides (Xenopore XENOSLIDE E, Hawthorne, N.J.) which were first dip-coated in 4 v/v % poly(hydroxyethyl methacrylate) (i.e., poly(HEMA)) using a customized microarrayer (Biodot). Spots were polymerized via 10 s exposure to long wave UV (365 nm), dried at <50 mtorr for at least 7 days. Before use, the chips were sterilized by UV for 30 min for each side, and then washed with PBS twice for 15 min to remove residual monomer or solvent. HUVECs (human umbilical vein endothelial cells from Lonza, Basel, Switzerland) were seeded onto the array and cultured for 12 hours. They were then fixed and stained with DAPI for cell number counting and phalloidin for F-actin to estimate cell spreading for the lead peptide identification.

[11] = tested on: HUVECs; assay: HUVEC adhesion on 2D surface of peptide-modified alginate hydrogel; type: cell-based, human; settings: 10% (w/w) peptide, 1% alginate, versus RGDS
Experimental: The peptides were conjugated onto the oxidized alginate by the EDC-NHS chemistry as reported by Rowley: using aqueous carbodiimide reacted with peptides (RGDS (SEQ ID NO:35), RGDSP (SEQ ID NO:33) and α1-peptide) onto the oxidized alginate. In order to secure sufficient cell attachment, 10% (w/w) peptide modification was performed into the alginate hydrogel.
The Ca2+ containing substrates for alginate crosslinking was prepared according to the literature. 50 μl, 1% alginate modified with peptides (RGDS (SEQ ID NO:35), RGDSP (SEQ ID NO:33) and α1-peptide, respectively) aqueous solution was transferred into each well in 96 well plates (3 replicates for each peptide). The alginate was left gelling for 40 min. Then the well plates were transferred into incubator for 10 min to melt the Ca2+ containing substrates. After Ca2+ containing substrates get removed, HUVECs were seeded onto the hydrogel layers and cultured for 12 hours. Then they were fixed and stained with DAPI for cell number counting and phalloidin for F-actin to estimate cell spreading.

T1 sequence (P23229 24-938 limits assumed): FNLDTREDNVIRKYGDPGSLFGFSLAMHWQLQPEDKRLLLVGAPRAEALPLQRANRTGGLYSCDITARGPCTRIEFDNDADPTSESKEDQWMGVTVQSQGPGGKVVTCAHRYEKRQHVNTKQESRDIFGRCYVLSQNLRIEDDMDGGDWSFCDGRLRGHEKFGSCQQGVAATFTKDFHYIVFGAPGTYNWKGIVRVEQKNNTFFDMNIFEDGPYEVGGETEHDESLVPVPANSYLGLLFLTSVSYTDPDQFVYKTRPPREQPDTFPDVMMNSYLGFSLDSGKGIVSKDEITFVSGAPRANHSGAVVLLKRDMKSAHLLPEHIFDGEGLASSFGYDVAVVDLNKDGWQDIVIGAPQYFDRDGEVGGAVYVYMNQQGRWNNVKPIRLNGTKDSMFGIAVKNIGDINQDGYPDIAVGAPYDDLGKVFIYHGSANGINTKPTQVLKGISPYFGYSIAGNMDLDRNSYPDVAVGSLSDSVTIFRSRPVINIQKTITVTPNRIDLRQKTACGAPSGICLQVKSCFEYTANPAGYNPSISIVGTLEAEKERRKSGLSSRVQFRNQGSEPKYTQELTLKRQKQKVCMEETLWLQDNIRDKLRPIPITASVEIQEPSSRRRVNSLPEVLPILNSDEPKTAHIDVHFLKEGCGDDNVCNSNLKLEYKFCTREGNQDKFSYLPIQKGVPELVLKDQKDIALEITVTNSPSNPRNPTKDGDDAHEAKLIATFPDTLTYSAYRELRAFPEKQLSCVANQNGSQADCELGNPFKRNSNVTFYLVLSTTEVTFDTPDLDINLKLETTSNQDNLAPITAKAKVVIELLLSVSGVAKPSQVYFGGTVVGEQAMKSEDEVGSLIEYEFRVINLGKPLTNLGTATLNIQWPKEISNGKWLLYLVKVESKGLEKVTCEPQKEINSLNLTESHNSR
T1 sequence (P23229 942-1130 partner limits assumed): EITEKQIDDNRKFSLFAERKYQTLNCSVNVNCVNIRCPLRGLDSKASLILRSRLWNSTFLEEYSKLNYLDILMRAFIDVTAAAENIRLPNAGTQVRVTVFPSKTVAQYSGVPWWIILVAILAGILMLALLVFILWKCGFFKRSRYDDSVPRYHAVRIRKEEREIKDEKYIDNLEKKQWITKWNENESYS
T1 sequence (P05556 21-798): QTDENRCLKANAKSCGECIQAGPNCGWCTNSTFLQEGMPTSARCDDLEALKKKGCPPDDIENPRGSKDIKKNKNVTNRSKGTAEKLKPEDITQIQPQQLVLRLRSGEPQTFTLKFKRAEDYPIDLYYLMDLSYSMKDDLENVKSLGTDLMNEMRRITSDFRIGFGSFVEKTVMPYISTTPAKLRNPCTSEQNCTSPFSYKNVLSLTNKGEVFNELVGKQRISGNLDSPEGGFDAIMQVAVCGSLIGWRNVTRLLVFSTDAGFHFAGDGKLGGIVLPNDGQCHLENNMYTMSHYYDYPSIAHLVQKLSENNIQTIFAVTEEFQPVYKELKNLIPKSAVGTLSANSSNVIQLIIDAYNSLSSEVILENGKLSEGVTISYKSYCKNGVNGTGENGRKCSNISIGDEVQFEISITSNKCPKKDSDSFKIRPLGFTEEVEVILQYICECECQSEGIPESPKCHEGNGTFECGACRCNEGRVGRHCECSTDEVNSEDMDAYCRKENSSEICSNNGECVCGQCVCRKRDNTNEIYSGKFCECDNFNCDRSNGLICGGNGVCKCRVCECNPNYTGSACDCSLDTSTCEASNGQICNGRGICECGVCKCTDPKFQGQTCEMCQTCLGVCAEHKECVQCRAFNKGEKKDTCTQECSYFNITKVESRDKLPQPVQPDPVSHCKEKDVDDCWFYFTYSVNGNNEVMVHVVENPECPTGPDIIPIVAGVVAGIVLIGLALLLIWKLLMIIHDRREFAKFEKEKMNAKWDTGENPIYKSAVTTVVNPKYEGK
T2 sequence (P06756 31-889 limits assumed): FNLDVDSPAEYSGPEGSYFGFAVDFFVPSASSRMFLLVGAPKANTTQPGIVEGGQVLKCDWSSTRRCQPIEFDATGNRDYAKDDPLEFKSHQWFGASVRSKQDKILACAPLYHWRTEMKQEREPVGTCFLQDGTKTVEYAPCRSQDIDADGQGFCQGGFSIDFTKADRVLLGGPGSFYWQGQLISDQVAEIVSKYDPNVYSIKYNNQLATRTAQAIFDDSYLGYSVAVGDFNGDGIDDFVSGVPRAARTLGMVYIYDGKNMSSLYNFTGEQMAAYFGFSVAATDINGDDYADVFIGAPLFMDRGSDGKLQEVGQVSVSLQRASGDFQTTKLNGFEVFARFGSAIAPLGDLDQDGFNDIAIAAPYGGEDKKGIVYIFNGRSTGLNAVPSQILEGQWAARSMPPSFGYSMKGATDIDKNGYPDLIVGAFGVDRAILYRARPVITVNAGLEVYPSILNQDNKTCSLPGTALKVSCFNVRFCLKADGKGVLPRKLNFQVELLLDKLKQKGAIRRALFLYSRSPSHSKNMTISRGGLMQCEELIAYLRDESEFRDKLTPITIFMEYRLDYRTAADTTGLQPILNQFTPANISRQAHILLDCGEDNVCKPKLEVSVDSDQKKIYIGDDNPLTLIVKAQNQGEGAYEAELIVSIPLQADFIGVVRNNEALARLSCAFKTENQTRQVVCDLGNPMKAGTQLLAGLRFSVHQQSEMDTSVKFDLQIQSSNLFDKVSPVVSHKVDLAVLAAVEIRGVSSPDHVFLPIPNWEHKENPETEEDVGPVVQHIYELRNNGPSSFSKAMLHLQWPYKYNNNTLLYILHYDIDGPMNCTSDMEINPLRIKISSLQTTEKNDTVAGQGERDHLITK
T2 sequence (P06756 891-1048 partner limits assumed): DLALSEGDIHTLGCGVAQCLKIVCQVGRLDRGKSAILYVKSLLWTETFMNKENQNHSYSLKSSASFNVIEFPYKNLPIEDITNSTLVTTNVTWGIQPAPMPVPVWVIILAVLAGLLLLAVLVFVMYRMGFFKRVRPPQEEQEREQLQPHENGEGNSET
T2 sequence (P05106 27-788): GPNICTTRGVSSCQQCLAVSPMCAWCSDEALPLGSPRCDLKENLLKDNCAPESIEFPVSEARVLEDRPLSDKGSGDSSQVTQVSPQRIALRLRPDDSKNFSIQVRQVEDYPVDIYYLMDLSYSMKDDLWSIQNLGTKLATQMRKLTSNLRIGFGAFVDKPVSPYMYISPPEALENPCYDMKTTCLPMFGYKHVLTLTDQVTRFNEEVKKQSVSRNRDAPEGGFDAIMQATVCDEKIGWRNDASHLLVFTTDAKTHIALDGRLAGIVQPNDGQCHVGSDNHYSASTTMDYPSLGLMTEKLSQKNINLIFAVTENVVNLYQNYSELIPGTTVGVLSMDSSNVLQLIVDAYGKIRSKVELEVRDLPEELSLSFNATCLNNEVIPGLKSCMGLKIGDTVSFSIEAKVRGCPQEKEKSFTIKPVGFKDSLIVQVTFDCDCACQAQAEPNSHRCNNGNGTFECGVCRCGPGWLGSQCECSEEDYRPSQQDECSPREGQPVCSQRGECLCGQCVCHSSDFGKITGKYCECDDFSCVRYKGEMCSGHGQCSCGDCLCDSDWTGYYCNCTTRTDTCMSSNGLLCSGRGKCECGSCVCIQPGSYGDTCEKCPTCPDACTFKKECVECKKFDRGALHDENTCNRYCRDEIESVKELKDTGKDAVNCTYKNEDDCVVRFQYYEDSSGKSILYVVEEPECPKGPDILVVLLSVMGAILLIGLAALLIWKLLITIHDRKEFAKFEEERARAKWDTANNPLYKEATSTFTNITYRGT

Substance: CQAGTFALRGDNPQG [A99, similar Ln derived peptide]
integrin binding reported for A99 [1]: bind to both VLA-6 (α6) and αvβ3 integrin subunits

Substance: DAVKQLQAAERGDA [derived from Laminin subunit α4]
hiPSC-CM adhesion / affinity to hiPSC-CMs [2]: substantial activities to support hiPSC-CM adhesion

Substance: G4RDGSP: methacrylated scrambled sequence of G4RGDSP (Meth-GGGGRDGSP) [reference compound]
adhesion of hADSCs on peptide-functionalized PEGDA-700 hydrogels [3]: no cell adhesion

Substance: MethG4RGDSP: methacrylated-RGDSP-peptide with 4 glycine linker (Meth-GGGGRGDSP)
adhesion of hADSCs on peptide-functionalized PEGDA-700 hydrogels [3]: effectively promote adhesion of hADSCs
saturation number of attached hADSCs relative to MethRGDSP and MethG2RGDSP [3]: about one-fold higher

Substance: MethG6RGDSP: methacrylated-RGDSP-peptide with 6 glycine linker (Meth-GGGGGGRGDSP)
saturation number of attached hADSCs relative to MethRGDSP and MethG2RGDSP [3]: about one-fold higher

Substance: PMQKMRGDVFSP [derived from Laminin subunit β4]
sarcomere formation / sarcomeric actinin expression of hiPSC-CMs [4]: greatest ability to promote hiPSC-CM adhesion and sarcomere formation; also recorded: most developed sarcomere structures
sarcomere formation / sarcomeric actinin expression of hiPSC-CMs ([4]; listed as RGD (SEQ ID NO:36) peptide from laminin β4 subunit): highest sarcomeric actinin expression
hiPSC-CM adhesion / affinity to hiPSC-CMs [2]: greatest ability to promote hiPSC-CM adhesion; also recorded: substantial activities to support hiPSC-CM adhesion; also recorded: highest affinity to hiPSC-CMs

Substance: PQVTRGDVFTMP [RGD peptide from vitronectin, included as a control, reference compound]
hiPSC-CM adhesion / affinity to hiPSC-CMs [2]: moderate cell adhesion

decrease in HUVEC adhesion when αvβ3 integrin is blocked [7]: ~35%
integrin binding concluded from blocking experiments [8]: bind to αvβ3 integrin
Substance: RGDS [RGD peptide derived from Fn]
decrease in HUVEC adhesion when VLA-6 integrin is blocked [5]: does not significantly affect cell adhesion
HUVEC spreading, proliferation and network formation in 3D alginate hydrogel [6]: limited cell spreading and no visible network formation
decrease in HUVEC adhesion when both VLA-6 and αvβ3 integrin are blocked [8]: ~35%

integrin binding concluded from blocking experiments [8]: bind to αvβ3 integrin
Substance: RGDSP [RGD peptide derived from Fn]
decrease in HUVEC adhesion when VLA-6 integrin is blocked [5]: does not significantly affect cell adhesion
HUVEC spreading, proliferation and network formation in 3D alginate hydrogel [6]: limited cell spreading and no visible network formation
mRNA expression of VEGFR2 [9]: significant higher amount of VEGFR2 mRNA expression
affinity to HUVECs / HUVEC adhesion on PEG hydrogel microarray [10]: significantly higher affinity to HUVECs than RGDS

Substance: SETQRGDVFVP [RGD peptide of the 12-peptide library, reference compound]
hiPSC-CM adhesion / affinity to hiPSC-CMs [2]: moderate cell adhesion

integrin binding concluded from blocking experiments [8]: binds to both VLA-6 and αvβ3 integrin
Substance: TFALRGDNP [α1 peptide, RGD peptide derived from Ln α1 subunit]
number of HUVECs attached to 2D surface of alginate hydrogel, higher than RGDS [11]: ~150%
HUVEC spreading, proliferation and network formation in 3D alginate hydrogel [6]: significantly enhanced cell proliferation and network formation
mRNA expression of VEGFR2 [9]: significantly up-regulated
affinity to HUVECs / HUVEC adhesion on PEG hydrogel microarray [10]: highest activities to promote HUVEC adhesion
saturated number of attached HUVECs, higher than RGDS ([10]; PEG hydrogel microarray, versus RGDS): ~500%
saturated number of attached HUVECs, higher than RGDSP ([10]; PEG hydrogel microarray, versus RGDSP): ~200%
decrease in HUVEC adhesion when both VLA-6 and αvβ3 integrin are blocked [8]: ~70%
